Laboratory results: patent US9340577B2, “HLA binding motifs and peptides and their uses” (priority 1992, dated 2016)
Read-outs that look alike come from different tables or passages of the source. No end group written: not given here.

Tests used:
Assay in all cases: biochemical
[1] = target: DRB5*0101 (Homo sapiens, UniProt P01903+Q30154)
[2] = target: DRB1*0901 (Homo sapiens, UniProt P01903+P01911, A100R/A103E/D57H/D86V/F55Y/F60I/F76Y/I96F/K127E/L162R/M171V/P40D/Q125H/Q99R/R33Q/R42F/S133A/S66N/T210M/V115G/W38K/Y107V/Y59G/Y89S); assay type: binding
[3] = target: DRB1*1501 (Homo sapiens, UniProt P01903+P01911); assay type: binding
[4] = target: DR7 (DRB1*0701) (Homo sapiens, UniProt P01903+P01911, A100R/A102G/A103Q/D57E/D86V/E43K/F76Y/K127E/L162R/M171V/P40G/Q125H/Q99D/R33Q/R42Y/R54Q/S133A/S66F/T210M/V115G/Y107V/Y59L/Y89S); assay type: binding
[5] = target: DRB4*0101 (Homo sapiens, UniProt P01903+P13762, G164S); assay type: binding
[6] = target: DRB1*0301 (Homo sapiens, UniProt P01903+P01911, A100K/A102G/A103R/A169T/F55Y/I96L/K41T/L162R/M171V/P40S/Q125H/Q178H/Q39Y/R42S/S66N/T106N/T262R/W38E/Y61H); assay type: binding
Sequence of DRB1*0301 (P01903 26-254 limits assumed, other chains not shown): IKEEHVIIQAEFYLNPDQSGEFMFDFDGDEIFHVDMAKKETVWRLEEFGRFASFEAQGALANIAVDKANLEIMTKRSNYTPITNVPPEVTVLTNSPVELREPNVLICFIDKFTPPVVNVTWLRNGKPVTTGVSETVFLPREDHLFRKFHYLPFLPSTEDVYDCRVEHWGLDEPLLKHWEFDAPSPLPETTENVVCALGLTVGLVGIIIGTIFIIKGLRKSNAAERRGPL

[7] = target: DR1 (DRB1*0101) (Homo sapiens, UniProt P01903+P01911, A100R/D57E/F55L/F60I/F76Y/I96L/L162R/M171V/P40L/Q125E/R42F/V115G/Y59C); assay type: binding
[8] = target: DRB1*1201 (Homo sapiens, UniProt P01903+P01911, A100R/A169T/D57E/D86V/F55L/H45Y/K41T/L162R/M171V/P40S/Q125H/Q178H/Q39Y/Q99D/R42G/S66L/T262R/V114A/V67L/W38E/Y59H/Y61H/Y89S); assay type: binding
[9] = target: DR4w4 (DRB1*0401) (Homo sapiens, UniProt P01903+P01911, A100K/A169T/F76Y/I96L/K127E/L162R/M171V/N62H/P40V/Q125Y/R42H/S133A/S149N/S66Y/V115G/V209L/W38E); assay type: binding
[10] = target: DRB1*0405 (Homo sapiens, UniProt P01903+P01911, A100R/A169T/D86S/F76Y/I96L/K127E/L162R/M171V/N62H/P40V/Q125Y/R42H/S133A/S149N/S66Y/V115G/V209L/W38E); assay type: binding
[11] = target: DRB1*0802 (Homo sapiens, UniProt P01903+P01911, A100R/A103L/A169T/F76Y/H45Y/I96F/K41T/L162R/M171V/P40S/Q125H/Q178H/Q39Y/Q99D/R218S/R42G/S66Y/V115G/W38E); assay type: binding
[12] = target: DRB1*1302 (Homo sapiens, UniProt P01903+P01911, A100E/A169T/K41T/L162R/M171V/P40S/Q125H/Q178H/Q39Y/Q99D/R42S/S66N/T262R/V115G/W38E/Y61H); assay type: binding
Sequence of DRB1*1302 (P01903 26-254 limits assumed, other chains not shown): as above

[13] = target: DRB1*1101 (Homo sapiens, UniProt P01903+P01911, A100R/A169T/A87E/I96F/K41T/L162R/M171V/P40S/Q125H/Q178H/Q39Y/Q99D/R42S/S66Y/T262R/V115G/W38E)
Sequence of DRB1*1101 (P01903 26-254 limits assumed, other chains not shown): as above

Compound | IC50 ([1]; Binding affinity DRB5 *0101) [nM] | IC50 [2] [nM] | IC50 [3] [nM] | IC50 [4] [nM] | IC50 [5] [nM] | IC50 [6] [nM] | IC50 [7] [nM] | IC50 [8] [nM] | IC50 [9] [nM] | IC50 [1] [nM] | IC50 [10] [nM] | IC50 [11] [nM] | IC50 [12] [nM] | IC50 [13] [nM] | IC50 ([13]; Binding affinity DRB1 *1101) [nM]
CC[C@H](C)[C@H](NC(=O)[C@H](Cc1c[nH]cn1)NC(=O)[C@H](C)NC(=O)[C@H](Cc1ccc(O)cc1)NC(=O)[C@H](CC(C)C)NC(=O)[C@@H](NC(=O)[C@H](Cc1ccccc1)NC(=O)[C@@H]1CCCN1C(=O)[C@H](CCC(N)=O)NC(=O)[C@@H](NC(=O)[C@H](CC(C)C)NC(=O)[C@@H](NC(=O)[C@H](CCCCN)NC(=O)[C@@H](N)Cc1ccccc1)[C@@H](C)O)[C@@H](C)CC)[C@@H](C)CC)C(=O)N[C@@H](CCC(N)=O)C(=O)O [Peptide 89.0025] | 8430 | 97 | 20 | 882 | 9.6 | > 20000 | 27 | 513 | 728 | – | – | – | – | – | –
CC(C)C[C@H](NC(=O)[C@@H](NC(=O)[C@H](Cc1c[nH]c2ccccc12)NC(=O)[C@H](CC(=O)O)NC(=O)[C@H](CCC(=O)O)NC(=O)[C@@H](NC(=O)[C@H](CCCCN)NC(=O)[C@H](Cc1ccc(O)cc1)NC(=O)[C@H](CCCNC(=N)N)NC(=O)[C@H](CO)NC(=O)[C@@H](N)CCC(N)=O)[C@@H](C)O)[C@@H](C)O)C(=O)N[C@@H](CCC(N)=O)C(=O)N[C@@H](CC(=O)O)C(=O)N[C@H](C(=O)N[C@@H](CS)C(=O)O)[C@@H](C)O [Peptide 90.0179] | – | 1970 | 345 | 6500 | – | 335 | – | 193 | 71 | > 20000 | 1590 | 585 | 71 | 2090 | –
AQEVHNDAQVLHVLK [Peptide 90.0047] | > 20000 | 10200 | 2540 | 7800 | – | 21 | 407 | > 20000 | 4530 | – | > 20000 | – | – | – | 10700
DDRWPYLHSRLVVFT [Peptide 89.0058] | > 20000 | 158 | 284 | 68 | 297 | > 20000 | 29 | 297 | > 20000 | – | – | 1700 | 2190 | – | –
DRGVLILLLIRFKCG [Peptide 89.0099] | 83 | – | – | 384 | – | 470 | 20 | 711 | 1480 | – | 3340 | 4730 | – | – | 1630
ESDMAFEYALLADSN [Peptide 90.0055] | – | 826 | 428 | – | 165 | 591 | 57 | 16300 | 24 | – | – | 5730 | 1850 | – | 4680
GKSLFGMSLMKFLQG [Peptide 89.0019] | 513 | 148 | 2780 | 16 | 369 | 2740 | 17 | 80 | 468 | – | – | 704 | 2030 | – | 1360
IIHLKGDPNSLKCLR [Peptide 90.0228] | 1330 | > 20000 | – | 2540 | 1900 | 11 | – | 5830 | 121 | – | – | 877 | 163 | – | > 20000
ISEVYGDTPEWIQRQ [Peptide 90.0035] | > 20000 | > 20000 | > 20000 | 6870 | – | 50 | > 20000 | > 20000 | > 20000 | – | 12800 | > 20000 | 6.9 | – | > 20000
KIGMLDDATVPCWNY [Peptide 90.0040] | > 20000 | > 20000 | > 20000 | > 20000 | – | 160 | 4430 | 12700 | 490 | – | > 20000 | > 20000 | > 20000 | – | > 20000
